By inhibition is commonly meant the share of the control response that was lost under treatment.

Results on 7 molecules are retold here after patent EP4559908A1, “HETEROARYL DERIVATIVE COMPOUND AND USE THEREOF” (S2CBio Inc., priority 2022, dated 2024).

The target in this experiment is T1, human ANO6 (variant 5) (Homo sapiens, UniProt Q4KMQ2).
T1 construct: expressed in transfected cells; host or cells: Fischer rat thyroid (FRT) cells
T1 sequence (Q4KMQ2 1-931 isoform Q4KMQ2-2): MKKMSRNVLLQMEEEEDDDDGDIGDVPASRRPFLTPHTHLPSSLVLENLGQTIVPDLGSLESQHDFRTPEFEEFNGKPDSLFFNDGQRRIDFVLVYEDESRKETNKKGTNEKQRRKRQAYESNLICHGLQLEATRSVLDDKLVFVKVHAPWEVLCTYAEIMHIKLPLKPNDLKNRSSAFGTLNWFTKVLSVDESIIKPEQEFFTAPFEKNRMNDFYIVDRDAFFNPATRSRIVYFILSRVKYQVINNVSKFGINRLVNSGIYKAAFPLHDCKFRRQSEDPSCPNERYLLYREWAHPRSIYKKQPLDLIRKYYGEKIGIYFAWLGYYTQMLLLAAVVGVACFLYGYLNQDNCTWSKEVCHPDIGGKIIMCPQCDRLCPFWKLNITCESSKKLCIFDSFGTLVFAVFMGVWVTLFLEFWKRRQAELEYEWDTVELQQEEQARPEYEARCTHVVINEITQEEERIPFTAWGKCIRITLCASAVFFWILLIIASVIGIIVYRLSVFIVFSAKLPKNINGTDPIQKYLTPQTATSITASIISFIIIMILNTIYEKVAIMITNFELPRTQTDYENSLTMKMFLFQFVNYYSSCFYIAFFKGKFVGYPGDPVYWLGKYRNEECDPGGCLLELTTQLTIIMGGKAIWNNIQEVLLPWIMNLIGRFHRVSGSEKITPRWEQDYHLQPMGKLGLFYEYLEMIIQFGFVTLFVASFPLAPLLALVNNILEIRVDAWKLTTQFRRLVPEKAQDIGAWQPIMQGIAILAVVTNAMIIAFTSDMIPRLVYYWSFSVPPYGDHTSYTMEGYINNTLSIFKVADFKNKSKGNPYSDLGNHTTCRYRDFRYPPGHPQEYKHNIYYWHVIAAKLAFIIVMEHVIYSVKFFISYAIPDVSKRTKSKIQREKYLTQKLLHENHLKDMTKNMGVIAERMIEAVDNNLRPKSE
Kind of experiment: Lact C2 assay (measuring phosphatidylserine externalization scramblase function). The note with it: FRT, FRT cells expressing human ANO6 (variant 5), ionomycin 10 µM, Lact-C2-GFP fluorescence, average of three tests; for inhibition at 0.05 µM: compound 50 nM, read-out: % Inhibition 50 nM; for inhibition at 1 µM: compound 1 µM, read-out: % Inhibition 1 µM. It counts as cell-based. In short, it runs like this: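 Cells were pretreated 10 min with compound (50 nM, 100 nM, 1 µM; 1% DMSO), then given 10 µM ionomycin for 10 min. Surface phosphatidylserine was stained with 500 nM Lact-C2-GFP (10 min, 37 °C), fixed and imaged. Inhibition was scaled between untreated (100%) and ionomycin-alone (0%) wells.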

Each structure is given as a SMILES string.

`c1cc(Nc2ncc(-c3ccsc3)cn2)cc(-c2nc3ccccc3[nH]2)c1` [Example 164, N-[3-(1H-benzo[d]imidazol-2-yl)phenyl]-5-(3-thienyl)pyrimidin-2-amine]: the inhibition at 0.05 µM is 30 to 60% and the inhibition at 1 µM was > 60%.
Take `FC(F)(F)c1ccc2nc(-c3cccc(Nc4ncc(-c5cscn5)cn4)c3)[nH]c2c1` [Example 304, 5-(thiazol-4-yl)-N-(3-(6-(trifluoromethyl)-1H-benzo[d]imidazol-2-yl)phenyl)pyrimidin-2-amine]: the inhibition at 0.05 µM lay in the range of 30 to 60% and the inhibition at 1 µM is > 60%.
In the case of `c1cc(Nc2cnc(-c3ccncn3)cn2)cc(-c2nc3ccccc3[nH]2)c1` [Example 277, N-(3-(1H-benzo[d]imidazol-2-yl)phenyl)-5-(pyrimidin-4-yl)pyrazin-2-amine], the inhibition at 0.05 µM was > 60%.
For `Fc1cccnc1-c1ccc(Nc2cccc(-c3nc4ccc(C(F)(F)F)cc4[nH]3)c2)cc1` [Example 251, N-(4-(3-fluoropyridin-2-yl)phenyl)-3-(6-(trifluoromethyl)-1H-benzo[d]imidazol-2-yl)aniline], the inhibition at 1 µM is > 60%.
On to `FC(F)(F)c1ccc2[nH]c(-c3cccc(Nc4ccc(-c5cccnn5)cc4)c3)nc2n1` [Example 235, N-(4-(pyridazin-3-yl)phenyl)-3-(5-(trifluoromethyl)-1H-imidazo[4,5-b]pyridin-2-yl)aniline], for which the inhibition at 0.05 µM is 30 to 60% and the inhibition at 1 µM is > 60%.
For the molecule `Clc1cc2nc(-c3cccc(Nc4ccc(-c5ccccc5)nn4)c3)[nH]c2cc1Cl` [Example 7, N-(3-(5,6-dichloro-1H-benzo[d]imidazol-2-yl)phenyl)-6-phenylpyridazin-3-amine], the inhibition at 0.05 µM is > 60% and the inhibition at 1 µM was > 60%. The inhibition at 0.1 µM (compound 100 nM) was > 60%.
For the molecule `FC(F)(F)c1ccccc1-c1ccc(Nc2cccc(-c3nc4ccccc4[nH]3)c2)cc1` [Example 272, N-(3-(1H-benzo[d]imidazol-2-yl)phenyl)-2'-(trifluoromethyl)-[1,1'-biphenyl]-4-amine], the inhibition at 1 µM is > 60%.
